According to US10377770B2 (Novartis AG, priority 2015, dated 2019):

These compounds were tested against C-Raf FL (full length CRAF with Y340E and Y341E activating mutations, co-expressed with h14-3-3 zeta) (Homo sapiens (Human), UniProt P04049, Y340E/Y341E) (assay: In vitro Raf activity determination, AlphaScreen p-MEK readout, c-Raf (C-Raf FL)). Conditions: c-Raf approximately 4 nM, ATP 1 μM, pre-incubation 60 minutes, reaction 1 hour.
Sequence of C-Raf FL (full length CRAF with Y340E and Y341E activating mutations, co-expressed with h14-3-3 zeta) (P04049 whole entry Y340E/Y341E): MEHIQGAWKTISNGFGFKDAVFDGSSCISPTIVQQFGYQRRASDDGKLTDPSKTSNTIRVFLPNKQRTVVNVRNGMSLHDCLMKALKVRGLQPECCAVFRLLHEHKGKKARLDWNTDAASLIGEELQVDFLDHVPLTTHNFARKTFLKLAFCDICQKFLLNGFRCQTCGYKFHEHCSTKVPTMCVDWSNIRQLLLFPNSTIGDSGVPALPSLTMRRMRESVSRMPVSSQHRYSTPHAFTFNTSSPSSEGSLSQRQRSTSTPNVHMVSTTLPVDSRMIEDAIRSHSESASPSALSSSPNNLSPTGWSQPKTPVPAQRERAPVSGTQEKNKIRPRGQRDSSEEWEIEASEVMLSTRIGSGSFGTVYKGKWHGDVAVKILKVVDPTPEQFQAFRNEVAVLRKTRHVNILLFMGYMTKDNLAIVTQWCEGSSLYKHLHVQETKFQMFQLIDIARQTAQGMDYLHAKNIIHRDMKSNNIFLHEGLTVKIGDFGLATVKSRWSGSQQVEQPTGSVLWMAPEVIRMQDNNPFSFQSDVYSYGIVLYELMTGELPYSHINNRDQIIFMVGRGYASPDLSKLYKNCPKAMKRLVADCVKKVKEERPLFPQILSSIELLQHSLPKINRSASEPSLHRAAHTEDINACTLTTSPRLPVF
Sequence of C-Raf FL (full length CRAF with Y340E and Y341E activating mutations, co-expressed with h14-3-3 zeta) (P63104 whole entry partner): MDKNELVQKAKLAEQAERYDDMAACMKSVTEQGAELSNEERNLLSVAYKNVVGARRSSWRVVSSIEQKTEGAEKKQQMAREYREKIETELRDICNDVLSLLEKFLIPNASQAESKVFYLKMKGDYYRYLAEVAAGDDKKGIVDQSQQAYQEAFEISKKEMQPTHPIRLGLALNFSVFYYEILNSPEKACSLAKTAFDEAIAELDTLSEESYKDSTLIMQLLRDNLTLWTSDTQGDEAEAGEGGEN
Type: biochemical
Outline: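 Full-length C-Raf (~4 nM) pre-incubated 60 min at room temperature with compound and kinase-dead biotinylated MEK1 (~10 nM) in Tris pH 7.5, 15 mM MgCl2, BSA, DTT. Reaction started with 1 μM ATP and run 1 h at room temperature. Phospho-MEK detected by AlphaScreen with anti-p-MEK antibody.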
Cc1ccc(NC(=O)c2ccnc(C(C)(F)F)c2)cc1-c1ccc2c(c1)N1CCOC[C@H]1C1(COC1)C2 [Example 57, (R)-2-(1,1-difluoroethyl)-N-(4-methyl-3-(1′,2′,4′,4a′-tetrahydro-6′H-spiro[oxetane-3,5′-[1,4]oxazino[4,3-a]quinolin]-9′-yl)phenyl)isonicotinamide] gave an IC50 of 11 pM. Cc1ccc(NC(=O)c2ccnc(C(C)(F)F)c2)cc1-c1ccc2c(c1)N1CCOC[C@@H]1C1(COC1)C2 [Example 58, (S)-2-(1,1-difluoroethyl)-N-(4-methyl-3-(1′,2′,4′,4a′-tetrahydro-6′H-spiro[oxetane-3,5′-[1,4]oxazino[4,3-a]quinolin]-9′-yl)phenyl)isonicotinamide] showed an IC50 of 10 pM. Cc1ccc(NC(=O)c2ccnc(C(C)(F)F)c2)cc1-c1ccc2c(c1)N1CCOC[C@H]1[C@](F)(CO)C2 [Example 80, 2-(1,1-difluoroethyl)-N-(3-((4aS,5S)-5-fluoro-5-(hydroxymethyl)-1,2,4,4a,5,6-hexahydro-[1,4]oxazino[4,3-a]quinolin-9-yl)-4-methylphenyl)isonicotinamide] gave an IC50 of 420 pM. Cc1ccc(NC(=O)c2ccnc(C(C)(F)F)c2)cc1-c1ccc2c(c1)N1CCOC[C@@H]1[C@@](F)(CO)C2 [Example 81, 2-(1,1-difluoroethyl)-N-(3-((4aR,5R)-5-fluoro-5-(hydroxymethyl)-1,2,4,4a,5,6-hexahydro-[1,4]oxazino[4,3-a]quinolin-9-yl)-4-methylphenyl)isonicotinamide] gave an IC50 of 81 pM. Compound Cc1ncc(NC(=O)c2ccnc(C(C)(F)F)c2)cc1-c1ccc2c(c1)N1CCOC[C@H]1[C@](F)(CO)C2 [Example 84, 2-(1,1-difluoroethyl)-N-(5-((4aS,5S)-5-fluoro-5-(hydroxymethyl)-1,2,4,4a,5,6-hexahydro-[1,4]oxazino[4,3-a]quinolin-9-yl)-6-methylpyridin-3-yl)isonicotinamide] has an IC50 of 1000 pM. Cc1ncc(NC(=O)c2ccnc(C(C)(F)F)c2)cc1-c1ccc2c(c1)N1CCOC[C@@H]1[C@@](F)(CO)C2 [Example 85, 2-(1,1-difluoroethyl)-N-(5-((4aR,5R)-5-fluoro-5-(hydroxymethyl)-1,2,4,4a,5,6-hexahydro-[1,4]oxazino[4,3-a]quinolin-9-yl)-6-methylpyridin-3-yl)isonicotinamide] gave an IC50 of 70 pM. Cc1ccc(NC(=O)c2ccnc(C(C)(F)F)c2)cc1-c1cc2n(c(=O)c1)CCC1COCCN21 (centres unmarked) [Example 95] was tested, and the IC50 was 30 pM. Cc1ncc(NC(=O)c2ccnc(C(C)(F)F)c2)cc1-c1ccc2c(c1)N1CCOCC[C@@H]1C[C@@H]2O [Example 97, 2-(1,1-difluoroethyl)-N-(5-((5aR,7S)-7-hydroxy-1,2,5,5a,6,7-hexahydro-4H-[1,4]oxazepino[4,5-a]quinolin-10-yl)-6-methylpyridin-3-yl)isonicotinamide] was tested, and the IC50 was 14 pM. Cc1ncc(NC(=O)c2ccnc(C(C)(F)F)c2)cc1-c1ccc2c(c1)N1CCOCC[C@H]1C[C@H]2O [Example 98, 2-(1,1-difluoroethyl)-N-(5-((5aS,7R)-7-hydroxy-1,2,5,5a,6,7-hexahydro-4H-[1,4]oxazepino[4,5-a]quinolin-10-yl)-6-methylpyridin-3-yl)isonicotinamide] showed an IC50 of 560 pM. Cc1ccc(NC(=O)c2ccnc(C(C)(F)F)c2)cc1-c1cnc2c(c1)N1CCOCC1C(CS(C)(=O)=O)C2 (centres unmarked) [Example 99, 2-(1,1-difluoroethyl)-N-(4-methyl-3-(5-((methylsulfonyl)methyl)-1,2,4,4a,5,6-hexahydro-[1,4]oxazino[4,3-a][1,5]naphthyridin-9-yl)phenyl)isonicotinamide] was tested, and the IC50 was 38 pM. Compound Cc1ccc(NC(=O)c2ccnc(C(F)(F)F)c2)cc1-c1cnc2c(c1)N1CCOC[C@H]1C[C@H]2O [Example 102, N-(3-((4aR,6R)-6-Hydroxy-1,2,4,4a,5,6-hexahydro-[1,4]oxazino[4,3-a][1,5]naphthyridin-9-yl)-4-methylphenyl)-2-(trifluoromethyl)isonicotinamide] has an IC50 of under 1.7 pM. Cc1ccc(NC(=O)c2ccnc(C(F)(F)F)c2)cc1-c1cnc2c(c1)N1CCOC[C@@H]1C[C@@H]2O [Example 103, N-(3-((4aS,6S)-6-hydroxy-1,2,4,4a,5,6-hexahydro-[1,4]oxazino[4,3-a][1,5]naphthyridin-9-yl)-4-methylphenyl)-2-(trifluoromethyl)isonicotinamide] gave an IC50 of 13 pM. With Cc1ncc(NC(=O)c2cccc(C(F)(F)F)c2)cc1-c1cnc2c(c1)N1CCOC[C@H]1C[C@H]2O [Example 105, N-(5-((4aR,6R)-6-Hydroxy-1,2,4,4a,5,6-hexahydro-[1,4]oxazino[4,3-a][1,5]naphthyridin-9-yl)-6-methylpyridin-3-yl)-3-(trifluoromethyl)benzamide] the IC50 was 45 pM. Compound Cc1ncc(NC(=O)c2cccc(C(F)(F)F)c2)cc1-c1cnc2c(c1)N1CCOC[C@@H]1C[C@@H]2O [Example 106, N-(5-((4aS,6S)-6-Hydroxy-1,2,4,4a,5,6-hexahydro-[1,4]oxazino[4,3-a][1,5]naphthyridin-9-yl)-6-methylpyridin-3-yl)-3-(trifluoromethyl)benzamide] has an IC50 of 12 pM. In the case of Cc1ccc(NC(=O)c2ccnc(C(C)(F)F)c2)cc1-c1cnc2c(c1)N1CCOC[C@H]1C[C@H]2O [Example 108, 2-(1,1-Difluoroethyl)-N-(3-((4aR,6R)-6-hydroxy-1,2,4,4a,5,6-hexahydro-[1,4]oxazino[4,3-a][1,5]naphthyridin-n-9-yl)-4-methylphenyl)isonicotinamide], the IC50 is reported as 13 pM. In the case of Cc1ccc(NC(=O)c2ccnc(C(C)(F)F)c2)cc1-c1cnc2c(c1)N1CCOC[C@@H]1C[C@@H]2O [Example 109, 2-(1,1-difluoroethyl)-N-(3-((4aS,6S)-6-hydroxy-1,2,4,4a,5,6-hexahydro-[1,4]oxazino[4,3-a][1,5]naphthyridin-n-9-yl)-4-methylphenyl)isonicotinamide], the IC50 is reported as 5.7 pM. Compound Cc1ccc(NC(=O)c2ccnc(C(C)(F)F)c2)cc1-c1cnc2c(c1)N1CCOC[C@H]1[C@H](CO)C2 [Example 117, 2-(1,1-Difluoroethyl)-N-(3-((4aR,5R)-5-(hydroxymethyl)-1,2,4,4a,5,6-hexahydro-[1,4]oxazino[4,3-a][1,5]naphthyridin-9-yl)-4-methylphenyl)isonicotinamide] has an IC50 of 4.7 pM. Cc1ccc(NC(=O)c2ccnc(C(C)(F)F)c2)cc1-c1cnc2c(c1)N1CCOC[C@@H]1[C@@H](CO)C2 [Example 118, 2-(1,1-difluoroethyl)-N-(3-((4aS,5S)-5-(hydroxymethyl)-1,2,4,4a,5,6-hexahydro-[1,4]oxazino[4,3-a][1,5]naphthyridin-9-yl)-4-methylphenyl)isonicotinamide] showed an IC50 of 4.6 pM. Work on Cc1ncc(NC(=O)c2cccc(C(F)(F)F)c2)cc1-c1cnc2c(c1)N1CCOC[C@H]1[C@H](CO)C2 [Example 120, N-(5-((4aR,5R)-5-(Hydroxymethyl)-1,2,4,4a,5,6-hexahydro-[1,4]oxazino[4,3-a][1,5]naphthyridin-9-yl)-6-methylpyridin-3-yl)-3-(trifluoromethyl)benzamide] yielded an IC50 of 11 pM. In the case of Cc1ncc(NC(=O)c2cccc(C(F)(F)F)c2)cc1-c1cnc2c(c1)N1CCOC[C@@H]1[C@@H](CO)C2 [Example 121, N-(5-((4aS,5S)-5-(hydroxymethyl)-1,2,4,4a,5,6-hexahydro-[1,4]oxazino[4,3-a][1,5]naphthyridin-9-yl)-6-methylpyridin-3-yl)-3-(trifluoromethyl)benzamide], the IC50 is reported as 9.5 pM. CCN1C(=O)C[C@@H]2COCCN2c2cc(-c3cc(NC(=O)c4ccnc(C(C)(F)F)c4)ccc3C)cnc21 [Example 126, (R)-2-(1,1-Difluoroethyl)-N-(3-(7-ethyl-6-oxo-1,2,4a,5,6,7-hexahydro-4H-[1,4]oxazino[4,3-d]pyrido[2,3-b][1,4]diazepin-10-yl)-4-methylphenyl)isonicotinamide] gave an IC50 of 16 pM. For CCN1C(=O)C[C@H]2COCCN2c2cc(-c3cc(NC(=O)c4ccnc(C(C)(F)F)c4)ccc3C)cnc21 [Example 127, (S)-2-(1,1-difluoroethyl)-N-(3-(7-ethyl-6-oxo-1,2,4a,5,6,7-hexahydro-4H-[1,4]oxazino[4,3-d]pyrido[2,3-b][1,4]diazepin-10-yl)-4-methylphenyl)isonicotinamide], the IC50 was 48 pM. CCN1C(=O)C[C@@H]2COCCN2c2cc(-c3cc(NC(=O)c4ccnc(C(F)(F)F)c4)ccc3C)cnc21 [Example 129, (R)-N-(3-(7-Ethyl-6-oxo-1,2,4a,5,6,7-hexahydro-4H-[1,4]oxazino[4,3-d]pyrido[2,3-b][1,4]diazepin-10-yl)-4-methylphenyl)-2-(trifluoromethyl)isonicotinamide] was tested, and the IC50 was 180 pM. For CCN1C(=O)C[C@H]2COCCN2c2cc(-c3cc(NC(=O)c4ccnc(C(F)(F)F)c4)ccc3C)cnc21 [Example 130, (S)-N-(3-(7-ethyl-6-oxo-1,2,4a,5,6,7-hexahydro-4H-[1,4]oxazino[4,3-d]pyrido[2,3-b][1,4]diazepin-10-yl)-4-methylphenyl)-2-(trifluoromethyl)isonicotinamide], the IC50 was 370 pM. Cc1ccc(NC(=O)c2ccnc(C(C)(F)F)c2)cc1-c1cc2c(nn1)OC(C)(C)[C@@H]1COCCN21 [Example 137, (S)-2-(1,1-Difluoroethyl)-N-(3-(6,6-dimethyl-6a,7,9,10-tetrahydro-6H-[1,4]oxazino[4,3-d]pyridazino[3,4-b][1,4]oxazin-2-yl)-4-methylphenyl)isonicotinamide] was tested, and the IC50 was 240 pM. In the case of Cc1ccc(NC(=O)c2ccnc(C(C)(F)F)c2)cc1-c1cc2c(nn1)OC(C)(C)[C@H]1COCCN21 [Example 138, (R)-2-(1,1-Difluoroethyl)-N-(3-(6,6-dimethyl-6a,7,9,10-tetrahydro-6H-[1,4]oxazino[4,3-d]pyridazino[3,4-b][1,4]oxazin-2-yl)-4-methylphenyl)isonicotinamide], the IC50 is reported as 590 pM.
